According to US9340577B2, “HLA binding motifs and peptides and their uses” (priority 1992, dated 2016):
Entries after “also recorded” stand apart in the source; their conditions may differ. Read-outs that look alike come from different tables or passages of the source. No end group written: not given here.

Columns and labels:
[1] = target: B*5301 (Homo sapiens, UniProt P01889, A329T/A93T/A95T/C349S/D201E/D98Y/E176V/E187L/E204Q/E69T/G107R/I218V/K202T/L105A/L119I/N104I/Q94N/R106L/R155S/R180L/S101N/S121R/S35A/S48A/T118I/V127L/V306I/V36M/Y140S/Y91F); assay: biochemical
[2] = target: B*5401 (Homo sapiens, UniProt P01889, A329T/C349S/D138N/D201E/E176V/E187T/E204Q/E69G/I76V/K202T/L119W/R155S/R180L/S121T/S35A/S48A/V127L/V306I/V36M/Y140L); assay: biochemical
[3] = target: B*0701 (Homo sapiens, UniProt P01889); assay: biochemical
[4] = target: HLA-A1 (A*0101) (Homo sapiens, UniProt P04439, A114D/A174V/A182V/D101N/D185E/E176A/E190D/L180R/Q94H/R68K/S129P/T187R/V100A/V91M/W191G); assay: biochemical; format: binding
[5] = target: A*2902 (Homo sapiens, UniProt P04439, A270S/D101N/D185E/E176V/E277Q/E87Q/F33T/G231S/H175R/I121M/I218V/I322F/K168Q/L300P/L318F/M331R/P208A/P217A/Q86L/T323A/T345S/V100A/V358M); assay: biochemical; format: binding
[6] = target: A*3002 (Homo sapiens, UniProt P04439, D101N/D140H/D185E/E176R/F33S/G80R/H175R/K168Q/Q94H/R138E/R41S/V100E); assay: biochemical; format: binding
[7] = target: A*2601 (Homo sapiens, UniProt P04439, A114D/A173T/A270S/D101N/D185E/E277Q/E87N/F33Y/G231S/I121R/I218V/K168Q/L180W/L300P/L318F/P208A/P217A/Q86R/Q94H/R138Q/S129P/T187R/T323A/T345S/V100A/V358M); assay: biochemical; format: binding
[8] = target: HLA-A*0201 (HLA-A2.1) (Homo sapiens, UniProt P04439, D140Y/D185E/D98H/E176V/E277Q/G131W/G231S/I119V/I121R/I166T/I218V/L300P/L318F/N151K/N90K/P208A/P217A/Q86G/Q94H/R138H/R169H/T345S); assay: biochemical; format: binding
[9] = system: HLA-A24; format: binding, human
[10] = target: B*0702 (B*0701) (Homo sapiens, UniProt P01889); assay: biochemical; format: binding; conditions: Table 25; given as whole numbers, no unit
[11] = system: peptide-coated Jurkat A2/Kb target cells; set-up: species or system mice; conditions: mouse, in vivo
[12] = target: A2.1 HLA molecules (Homo sapiens, UniProt P04439, D140Y/D185E/D98H/E176V/E277Q/G131W/G231S/I119V/I121R/I166T/I218V/L300P/L318F/N151K/N90K/P208A/P217A/Q86G/Q94H/R138H/R169H/T345S); format: binding; set-up: A*0201 / A2.1 Binding / A2 Bind. / A2 / A2.1 (binding capacity): scale not given here
[13] = B*0701 (nM), Binding of peptides to B7-like supermotif alleles, Table 36

| Compound | IC50 [4] [nM] | IC50 [5] [nM] | IC50 [6] [nM] | IC50 [7] [nM] | other results |
| --- | --- | --- | --- | --- | --- |
| CC[C@H](C)[C@H](NC(=O)[C@@H](NC(=O)[C@H](Cc1ccccc1)NC(=O)[C@H](CC(N)=O)NC(=O)[C@@H](NC(=O)[C@@H](NC(=O)[C@H](CS)NC(=O)[C@@H]1CCCN1C(=O)[C@@H](N)Cc1ccc(O)cc1)[C@@H](C)O)C(C)C)[C@@H](C)O)C(=O)O [15.047] | – | – | – | – | IC50 ([1]; B*5301 (nM)): 102 nM; IC50 [2]: 89 nM |
| CC[C@H](C)[C@H](NC(=O)[C@H](Cc1ccc(O)cc1)NC(=O)[C@H](CC(C)C)NC(=O)[C@H](Cc1c[nH]cn1)NC(=O)CNC(=O)[C@@H](NC(=O)[C@@H]1CCCN1C(=O)[C@@H](N)CC(=O)O)[C@@H](C)CC)C(=O)N[C@@H](Cc1ccccc1)C(=O)O [15.138] | – | – | – | – | IC50 ([1]; B*5301 (nM)): 2550 nM |
| CC[C@H](C)[C@H](NC(=O)[C@@H]1CCCN1C(=O)[C@@H](N)CCCCN)C(=O)N[C@H](C(=O)N[C@@H](CCC(N)=O)C(=O)N[C@@H](Cc1ccc(O)cc1)C(=O)N[C@@H](CC(=O)O)C(=O)N[C@@H](CC(N)=O)C(=O)N[C@@H](Cc1ccccc1)C(=O)O)C(C)C [15.185] | – | – | – | – | IC50 ([1]; B*5301 (nM)): 2040 nM |
| CSCC[C@H](NC(=O)[C@H](CC(C)C)NC(=O)[C@H](C)NC(=O)[C@@H]1CCCN1C(=O)[C@@H](N)Cc1ccc(O)cc1)C(=O)N1CCC[C@H]1C(=O)N[C@@H](CC(C)C)C(=O)N[C@@H](Cc1ccc(O)cc1)C(=O)N[C@@H](C)C(=O)O [16.008] | – | – | – | – | IC50 [3, 13]: 524 nM; IC50 ([1]; B*5301 (nM)): 2580 nM; IC50 [2]: 0.8 nM |
| CC[C@H](C)[C@H](NC(=O)[C@H](Cc1ccc(O)cc1)NC(=O)[C@H](CC(C)C)NC(=O)[C@H](Cc1c[nH]cn1)NC(=O)CNC(=O)[C@@H](NC(=O)[C@@H]1CCCN1C(=O)[C@@H](N)CC(=O)O)[C@@H](C)CC)C(=O)N[C@@H](Cc1ccccc1)C(=O)N[C@@H](C)C(=O)O [16.201] | – | – | – | – | IC50 ([1]; B*5301 (nM)): 20700 nM; IC50 [2]: 359 nM |
| CC(C)C[C@H](NC(=O)[C@H](CC(=O)O)NC(=O)[C@H](CCC(N)=O)NC(=O)[C@@H](N)[C@@H](C)O)C(=O)N[C@H](C(=O)N[C@@H](CCC(N)=O)C(=O)N[C@@H](CCC(=O)O)C(=O)N[C@@H](CCCCN)C(=O)N[C@@H](Cc1ccc(O)cc1)C(=O)O)C(C)C [Peptide 83.0099] | 91 | > 20000 | 2100 | – | – |
| CC[C@H](C)[C@H](NC(=O)[C@@H]1CCCN1C(=O)[C@H](CC(=O)O)NC(=O)[C@@H](NC(=O)[C@H](CCC(=O)O)NC(=O)[C@@H](N)CCSC)C(C)C)C(=O)NCC(=O)N[C@@H](Cc1c[nH]cn1)C(=O)N[C@@H](CC(C)C)C(=O)N[C@@H](Cc1ccc(O)cc1)C(=O)O [Peptide 1461.06] | 371 | 307 | 35 | 15 | – |
| CC[C@H](C)[C@H](NC(=O)[C@@H](NC(=O)[C@@H](NC(=O)[C@@H](N)CS)[C@@H](C)O)[C@@H](C)O)C(=O)N[C@@H](Cc1c[nH]cn1)C(=O)N[C@@H](Cc1ccc(O)cc1)C(=O)N[C@@H](CC(N)=O)C(=O)N[C@@H](Cc1ccc(O)cc1)C(=O)O [Peptide 9012.0113] | 3480 | 3120 | – | 893 | – |
| ATDLGLSY [Peptide 9012.0112] | 9.6 | 2200 | – | 2810 | – |
| ATSPAFDNLYY [Peptide 9012.0188] | 4.9 | 9.4 | 0.9 | 41 | – |
| CILESCFRAVI | – | – | – | – | binding to HLA-A2.1 (column 3; no allele head shown for these rows) [8]: 0.0017; binding to HLA-A24 (column 6; no allele head shown for these rows) [9]: 0.0008; B*0701 binding [10]: 0 |
| CTDIHYNY [Peptide 9012.0114] | 68 | 2550 | – | 2190 | – |
| DMDDLVDAEEY [Peptide 9012.0184] | 428 | > 20000 | 18000 | 5660 | – |
| E6.29/1088.10 (TIHDIILECV) | – | – | – | – | Immunogenicity Experiment 1 [11]: 22.13 (3.71) Lytic Units; Immunogenicity Experiment 2 [11]: 0.4 (3.52) Lytic Units; A2.1 Binding [12]: 0.021 |
| E6.5211088.05 (FAFRDLCIV) [Peptide E6.5211088.05] | – | – | – | – | Immunogenicity Experiment 1 [11]: — (key: —: a dash indicates _Lytic Units with a geometric mean ≦0.2); A2.1 Binding [12]: 0.057 |
| EPIVGAETF [15.091] | – | – | – | – | IC50 ([1]; B*5301 (nM)): 4770 nM |
| ETVPISHLY [Peptide 9012.0132] | 234 | 869 | 2.2 | 0.35 | – |
| FTQENYLEY [Peptide 9012.0137] | 13 | 23 | 99 | 8 | – |
| FTTCLGLSY [Peptide 9012.0136] | 15 | 2.2 | 1300 | 1.3 | – |
| GTDCTTIHYNY [Peptide 9012.0200] | 29 | 959 | 76 | 4860 | – |
| GTDPACYEF [Peptide 9012.0135] | 467 | 1960 | 9840 | – | – |
| GTDVRAMAIY [Peptide 9012.0156] | – | – | 1.4 | 965 | – |
| GTSSFSTTINY [Peptide 9012.0190] | 4180 | – | 86 | 1490 | – |
| GTSSLPTTMNY [Peptide 9012.0194] | – | 260 | 7.6 | 2490 | – |

| Compound | IC50 [4] [nM] | IC50 [5] [nM] | IC50 [6] [nM] | IC50 [7] [nM] | other results |
| --- | --- | --- | --- | --- | --- |
| ITSKASEY [Peptide 9012.0108] | 3290 | 15200 | 165 | 3160 | – |
| LLMGTLGIV | – | – | – | – | CTL response in HLA-A2.1 transgenic mice [11]: most immunogenic |
| LTHFLLLKY [Peptide 9012.0134] | 32 | 1.3 | 3.2 | 369 | – |
| LTQENYLEY [Peptide 9012.0133] | 16 | 22 | 23 | 30 | – |
| NTDRHSVVVPY [Peptide 9012.0198] | – | 1720 | 9690 | 4610 | – |
| PTDDPSPLQRY [Peptide 9012.0186] | 32 | 937 | 440 | > 20000 | – |
| RYRPGTVAL | – | – | – | – | B*0701 binding [10]: 0 |
| SPLLLSTTEQ [15.226] | – | – | – | – | IC50 [3]: 21600 nM; IC50 [1]: 55 nM |
| SSDPSQKTY [Peptide 9012.0139] | 37 | 9710 | – | > 20000 | – |
| SSDSTTINY [Peptide 9012.0130] | 8.5 | – | 898 | – | – |
| STVPSQKTY [Peptide 9012.0140] | > 20000 | > 20000 | – | 420 | – |
| TIHDIILECV | – | – | – | – | CTL response in HLA-A2.1 transgenic mice [11]: most immunogenic |
| TLGIVCPI | – | – | – | – | CTL response in HLA-A2.1 transgenic mice [11]: most immunogenic; also recorded: strongest epitope |
| TLGIVXPI | – | – | – | – | change of binding affinity for all A2 alleles versus parent [8]: greatly increased; crossreactivity of induced CTLs with wild type sequence [11]: fully crossreactive with the wild type sequence; immunogenicity in A2/Kb transgenic mice versus wild type peptide [11]: more potent immunogen |
| TMDYPLWSQSY [Peptide 9012.0196] | – | 721 | 99 | 419 | – |
| TPVNSQLGNI [15.246] | – | – | – | – | IC50 [1]: 16900 nM |
| VTGPGPGY [Peptide 83.0098] | 1840 | 1890 | 305 | – | – |
| WPLYGNEGL [15.041] | – | – | – | – | IC50 [3, 13]: 859 nM; IC50 ([1]; B*5301 (nM)): 6890 nM |
| YMLDLQPETT | – | – | – | – | CTL response in HLA-A2.1 transgenic mice [11]: most immunogenic |
| YPAEITLYW | – | – | – | – | B*0701 binding [10]: 0 |
| YPKVKQWPL | – | – | – | – | B*0701 binding [10]: 0 |
| YTMAGVGSPY [Peptide 9012.0153] | 9.8 | 2.2 | 3.5 | 0.32 | – |
| YVMAGVGSPY [Peptide 9012.0152] | 122 | 3.4 | 12 | 1.7 | – |
